Tests used:
[1] = In vitro human skin absorption, Franz diffusion cell: quantification in skin fractions (epidermis, dermis); assay type: in vitro ADME; settings: emulsion 0.1 mg/mL, 200 μL, T24 h
Description: (§1) The aim of this study was to evaluate the absorption of compound 11 applied to excised human skin.
(§2) In vitro method using a Franz diffusion cell allows measuring the diffusion of chemicals into and across skin.
(§3) The tested compound is applied to the surface of a human skin explant separating the two chambers of a Franz diffusion cell. The compound remains on the skin for a specified time under specified conditions. The receptor fluid is sampled at time points throughout the experiment and analyzed for the tested compound. The skin may also be fractioned for separate analysis in epidermis or dermis layers.
The transcutaneous absorption was measured on human skin collected from the abdominoplasty of a single donor. […]
The tested compounds were quantified, at T0 h and T24 h in the receptor solution bathing the inner surface of the skin (determination of flux), or at T24 h in the fractionated skin extracts (epidermis or dermis).
To prepare the extracts, the skin explant is firstly divided in dermis and epidermis layers, then 500 μL of methanol were added on each piece of skin and incubated in an ultrasonic bath for 4 hours. […] Secondly the quantification of compounds by LC-MS/MS method was realized on 100 μl of the previous preparation added with 1000 μl of ultrapure water and 10 μl of an internal standard […]
The skin extracts were prepared at T24 h and the quantification of compound 11 was performed. […]

[2] = Antioxidant activity by the spectrophotometric method of the free radical DPPH•
Description: The aim of the study was to evaluate the antioxidant activity of compound 11 by the spectrophotometric method of the free radical DPPH• (2,2-diphenyl-1-picrylhydrazyl). Indeed, antioxidants react with DPPH^• (purple), a stable free radical which is reduced to DPPH-H (yellow), and in consequence, the absorbance is decreased from the DPPH^• radical to the DPPH-H form. The degree of discoloration indicates the scavenging potential of the antioxidant compounds in terms of hydrogen donating ability (Popovici et al. Revue de génie industriel 2009, 4, 25-39).
The tested compounds were: Trolox ((±)-6-hydroxy-2,5,7,8-tetramethylchromane-2-carboxylic acid, Sigma Aldrich), as reference, and compound 11.
A stock solution of DPPH• was prepared at 200 μmol/mL in methanol and diluted in methanol in order to have a final concentration of around 150 μmol/mL to obtain a DO close to 0.9 in a plate of 96 wells. The antioxidant stock solutions were prepared at 1 mg/mL in methanol and the tested solutions were prepared from these antioxidant stock solutions as described in Table 7 below.
50 μL of each solution of antioxidant was added to the wells. Then, 200 μL of DPPH^• was added to each well.
The blank was prepared with only 250 μl of methanol and the negative control was prepared with 200 μL DPPH• and 50 μL of methanol.
The analysis was started immediately after the addition of DPPH• lasting for 2 hours (readings every 20 seconds). The absorbance was read at 515 nm. Each experiment was performed three times and had shown that the absorbance decreases while the concentration of antioxidant increased.
The activity of DPPH• is a percentage calculated as the ratio of A/An×100%.
The EC50 is expressed as a molar ratio of antioxidant (compound 11)/DPPH• (Popovici et al. Revue de génie industriel 2009, 4, 25-39). The EC50 was determined from the graph representing the percentage of DPPH• in function of the above mentioned molar ratio (moles of compound 11/moles of DPPH•).
The antioxidant activity of compound 11 was compared to that of Trolox used as a reference (considered as 100%).

[3] = In vitro human skin absorption, Franz diffusion cell: quantification in the receptor fluid (flux); assay type: in vitro ADME; settings: human, 2 mg/ml
Description: as §1, §2, §3
The transcutaneous absorption was measured on human skin collected from the abdominoplasty of a single donor. At reception, the skin was defatted and cut in several fragments in order to perform Franz experiment. […]
The tested compounds were quantified, at T0 h and T24 h in the receptor solution bathing the inner surface of the skin (determination of flux), or at T24 h in the fractionated skin extracts (epidermis or dermis). […]
Sampling: 500 μL from the receptor fluid were removed at T0 h (replaced by Ringer solution) and at T24 h. These samples were analyzed by LC-MS/MS method for quantification of compound 11 and deoxyarbutin (results not shown). The quantity measured allowed to calculate a flux and to compare the absorption profile across the skin of compound 11 and deoxyarbutin.

[4] = In vitro stability: hydroquinone released in various chemical conditions (HPLC-UV/DAD); assay type: physicochemical
Description: The stability of compound 11 was evaluated by the released of hydroquinone, which is a potentially toxic compound, in different chemical conditions (extreme conditions, simulating the application of these molecules on the skin) and it was compared to the deoxyarbutin.
This study involved different tests as degradation test and chemical stability (various chemical solutions, pH and temperatures).
Analytical Method (HPLC-UV/DAD Method)
Column Atlantis dC18 150 mm*4.6 mm*3 μm Waters, 30° C. Injection 50 μl, 25° C. λ: 220 nm, 265 nm, 285 nm. A-Acetonitrile B-Water; 0.8 ml/min; elution gradient: […]
This analytical method gave linear response for compound 11, Deoxyarbutin and Hydroquinone from 25 ng/mL to 1000 ng/mL. Dilution of samples had to be taken into account for each stability study to calculate the LLOQ of each compound.
The tested compounds are incubated in different solutions, at different times (see table 1). Then the analytical method was used to quantify remaining compounds and potential hydroquinone released (as possible degradation of compounds).
Hydroquinone (HQ) apparition is expressed as a percentage of initial compound 11 or Deoxyarbutin. The calculation was done in molar units and the limit of quantification fluctuates with the initial concentration.

## Oc1ccc(OC2CCCCC2(F)F)cc1 (racemic) [Compound 11]
[1]; DERMIS
  Quantity in skin extract: 5.1 μg/g of tissue
[1]; EPIDERMIS
  Quantity in skin extract: 22.3 μg/g of tissue
[2]; Solution 1 (0.05 mg/mL in methanol)
  A at 515 nm (T = 30 min): 0.505
[2]; Solution 2 (0.10 mg/mL in methanol)
  A at 515 nm (T = 30 min): 0.373
[2]; Solution 3 (0.15 mg/mL in methanol)
  A at 515 nm (T = 30 min): 0.234
[2]; Solution 4 (0.2 mg/mL in methanol)
  A at 515 nm (T = 30 min): 0.233
[2]; Trolox considered as 100%
  antioxidant (free radical scavenger) efficacy compared to that of Trolox: 31.1%
[2]; molar ratio antioxidant/DPPH•, absorbance at T = 30 min
  EC50 (Ratio antioxidant/DPPH•) Mean: 0.772
[3]
  Flux, mean (n = 3): 2.71 μg/h/cm^2
[4]; Ringer's solution pH 5.5 at 70° C., 24 H
  % Hydroquinone released: 0.00%
[4]; Ringer's solution pH 8.5 at 70° C., 24 H
  % Hydroquinone released: 0.00%
[4]; Synthetic perspiration at RT, 48 H
  % Hydroquinone released: 0.00%
[4]; Water at room temperature, 14 Days
  % Hydroquinone released: 0.00%
[4]; whatever the tested conditions
  Hydroquinone release: never released

From patent US10351501B2, “Gem difluorocompounds as depigmenting or lightening agents” (TFCHEM, priority 2015, dated 2019)
